Laboratory results taken from the NIST ThermoML archive (doi:10.1016/j.jct.2015.05.024).
Numbers after ± are expanded uncertainties.

Assay: xn = mol fraction of the nth substance listed
Settings: 100 kPa, Liquid; for mass density: Vibrating tube method; for speed of sound: Frequency=5 MHz, Pulse-echo method

OCCOCCOCCO [triethylene glycol] + O
Settings | mass density [kg/m3] | speed of sound [m/s]
303.15 K, x1 = 0.04979 | 1041.3 ± 0.17 | –
303.15 K, x1 = 0.06996 | 1054 ± 0.16 | –
303.15 K, x1 = 0.09424 | 1066.08 ± 0.14 | –
303.15 K, x1 = 0.1481 | 1084.03 ± 0.14 | –
303.15 K, x1 = 0.2006 | 1094.18 ± 0.14 | –
303.15 K, x1 = 0.2502 | 1100.12 ± 0.14 | –
303.15 K, x1 = 0.2988 | 1103.95 ± 0.15 | –
303.15 K, x1 = 0.3492 | 1106.7 ± 0.15 | –
303.15 K, x1 = 0.3925 | 1108.43 ± 0.16 | –
303.15 K, x1 = 0.4502 | 1110.16 ± 0.17 | –
303.15 K, x1 = 0.4877 | 1111.03 ± 0.18 | –
303.15 K, x1 = 0.5004 | 1111.29 ± 0.18 | –
303.15 K, x1 = 0.5739 | 1112.54 ± 0.19 | –
303.15 K, x1 = 0.58 | 1112.63 ± 0.2 | –
303.15 K, x1 = 0.6465 | 1113.45 ± 0.21 | –
303.15 K, x1 = 0.651 | 1113.5 ± 0.21 | –
303.15 K, x1 = 0.7008 | 1113.98 ± 0.22 | –
303.15 K, x1 = 0.7471 | 1114.36 ± 0.23 | –
303.15 K, x1 = 0.7677 | 1114.51 ± 0.24 | –
303.15 K, x1 = 0.82 | 1114.86 ± 0.26 | –
303.15 K, x1 = 0.8623 | 1115.11 ± 0.27 | –
303.15 K, x1 = 0.8792 | 1115.2 ± 0.28 | –
303.15 K, x1 = 0.8975 | 1115.3 ± 0.28 | –
303.15 K, x1 = 0.9203 | 1115.41 ± 0.29 | –
303.15 K, x1 = 0.9514 | 1115.57 ± 0.3 | –
303.15 K, x1 = 0.9692 | 1115.66 ± 0.31 | –
303.15 K, x1 = 1 | 1115.81 ± 0.32 | –
308.15 K, x1 = 0.000704 | – | 1522.8 ± 1.2
308.15 K, x1 = 0.002176 | – | 1528.1 ± 1.2
308.15 K, x1 = 0.005721 | – | 1540.6 ± 1.2
308.15 K, x1 = 0.01035 | – | 1556 ± 1.2
308.15 K, x1 = 0.0107 | 1005.7 ± 0.23 | –
308.15 K, x1 = 0.01513 | – | 1570.7 ± 1.2
308.15 K, x1 = 0.02047 | 1015.27 ± 0.21 | –
308.15 K, x1 = 0.02389 | – | 1595 ± 1.1
308.15 K, x1 = 0.03177 | – | 1614.1 ± 1.1
308.15 K, x1 = 0.03972 | 1031.49 ± 0.2 | –
308.15 K, x1 = 0.0428 | – | 1637 ± 1.1
308.15 K, x1 = 0.04979 | 1038.74 ± 0.17 | –
308.15 K, x1 = 0.05056 | – | 1650.6 ± 1.1
308.15 K, x1 = 0.05793 | – | 1661.8 ± 1.1
308.15 K, x1 = 0.06447 | – | 1670.6 ± 1.1
308.15 K, x1 = 0.06996 | 1051.15 ± 0.16 | –
308.15 K, x1 = 0.07343 | – | 1680.8 ± 1.1
308.15 K, x1 = 0.08342 | – | 1690 ± 1.1
308.15 K, x1 = 0.09076 | – | 1695.5 ± 1.1
308.15 K, x1 = 0.09424 | 1062.94 ± 0.14 | –
308.15 K, x1 = 0.1028 | – | 1702.6 ± 1.1
308.15 K, x1 = 0.1137 | – | 1707.1 ± 1.1
308.15 K, x1 = 0.1189 | – | 1708.7 ± 1.1
308.15 K, x1 = 0.1229 | – | 1709.7 ± 1.1
308.15 K, x1 = 0.1231 | – | 1709.7 ± 1.1
308.15 K, x1 = 0.1269 | – | 1710.5 ± 1.1
308.15 K, x1 = 0.1308 | – | 1711.1 ± 1.1
308.15 K, x1 = 0.1403 | – | 1712.1 ± 1.1
308.15 K, x1 = 0.1427 | – | 1712.2 ± 1.1
308.15 K, x1 = 0.1481 | 1080.5 ± 0.14 | 1712.3 ± 1.1
308.15 K, x1 = 0.1594 | – | 1711.9 ± 1.1
308.15 K, x1 = 0.1659 | – | 1711.3 ± 1.1
308.15 K, x1 = 0.1738 | – | 1710.3 ± 1.1
308.15 K, x1 = 0.1858 | – | 1708.3 ± 1.1
308.15 K, x1 = 0.1969 | – | 1706 ± 1.1
308.15 K, x1 = 0.2006 | 1090.47 ± 0.14 | –
308.15 K, x1 = 0.2172 | – | 1701 ± 1.1
308.15 K, x1 = 0.2467 | – | 1692.8 ± 1.1
308.15 K, x1 = 0.2502 | 1096.32 ± 0.14 | –
308.15 K, x1 = 0.2825 | – | 1682.6 ± 1.1
308.15 K, x1 = 0.2988 | 1100.12 ± 0.15 | –
308.15 K, x1 = 0.3259 | – | 1670.8 ± 1.1
308.15 K, x1 = 0.3492 | 1102.85 ± 0.15 | –
308.15 K, x1 = 0.3691 | – | 1660.3 ± 1.1
308.15 K, x1 = 0.3925 | 1104.57 ± 0.16 | –
308.15 K, x1 = 0.4352 | – | 1646.2 ± 1.2
308.15 K, x1 = 0.4502 | 1106.3 ± 0.17 | –
308.15 K, x1 = 0.5067 | – | 1632.7 ± 1.2
308.15 K, x1 = 0.6111 | – | 1615.9 ± 1.2
308.15 K, x1 = 0.7783 | – | 1598.5 ± 1.3
308.15 K, x1 = 0.8912 | – | 1591.9 ± 1.4
308.15 K, x1 = 0.9608 | – | 1587.5 ± 1.4
308.15 K, x1 = 1 | – | 1584.6 ± 1.4
